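96-well plates; 48 h exposure; 5 concentrations. Endpoints by linear interpolation between flanking doses. Not reached: highest tested concentration assigned. GI50 = concentration required for 50% inhibition of growth. TGI: total growth inhibition.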
Legend:
Experiment in all cases: NCI tumour cell line growth inhibition, 48 h
786-0 renal = test system: 786-0 renal
A498 renal = test system: A498 renal
A549 NSCLC = test system: A549 NSCLC
ACHN renal = test system: ACHN renal
BT-549 breast = test system: BT-549 breast
CAKI-1 renal = test system: CAKI-1 renal
CCRF-CEM leukemia = test system: CCRF-CEM leukemia
COLO 205 colon = test system: COLO 205 colon
DU-145 prostate = test system: DU-145 prostate
EKVX NSCLC = test system: EKVX NSCLC
HCC-2998 colon = test system: HCC-2998 colon
HCT-116 colon = test system: HCT-116 colon
HCT-15 colon = test system: HCT-15 colon
HL-60(TB) leukemia = test system: HL-60(TB) leukemia
HOP-62 NSCLC = test system: HOP-62 NSCLC
HOP-92 NSCLC = test system: HOP-92 NSCLC
HS 578T breast = test system: HS 578T breast
HT29 colon = test system: HT29 colon
IGROV1 ovarian = test system: IGROV1 ovarian
K-562 leukemia = test system: K-562 leukemia
KM12 colon = test system: KM12 colon
LOX IMVI melanoma = test system: LOX IMVI melanoma
M14 melanoma = test system: M14 melanoma
MALME-3M melanoma = test system: MALME-3M melanoma
MCF7 breast = test system: MCF7 breast
MDA-MB-435 = test system: MDA-MB-435
MDA-MB-468 breast = test system: MDA-MB-468 breast
MOLT-4 leukemia = test system: MOLT-4 leukemia
NCI-H226 lung = test system: NCI-H226 lung
NCI-H23 lung = test system: NCI-H23 lung
NCI-H460 lung = test system: NCI-H460 lung
NCI-H522 lung = test system: NCI-H522 lung
NCI/ADR-RES ovarian = test system: NCI/ADR-RES ovarian
OVCAR-3 ovarian = test system: OVCAR-3 ovarian
OVCAR-4 ovarian = test system: OVCAR-4 ovarian
OVCAR-5 ovarian = test system: OVCAR-5 ovarian
OVCAR-8 ovarian = test system: OVCAR-8 ovarian
PC-3 prostate = test system: PC-3 prostate
RPMI-8226 leukemia = test system: RPMI-8226 leukemia
RXF 393 renal = test system: RXF 393 renal
SF-268 CNS = test system: SF-268 CNS
SF-295 CNS = test system: SF-295 CNS
SF-539 CNS = test system: SF-539 CNS
SK-MEL-28 melanoma = test system: SK-MEL-28 melanoma
SK-MEL-5 melanoma = test system: SK-MEL-5 melanoma
SK-OV-3 ovarian = test system: SK-OV-3 ovarian
SN12C renal = test system: SN12C renal
SNB-19 CNS = test system: SNB-19 CNS
SR leukemia = test system: SR leukemia
SW-620 colon = test system: SW-620 colon
T-47D breast = test system: T-47D breast
TK-10 renal = test system: TK-10 renal
U251 CNS = test system: U251 CNS
UACC-257 melanoma = test system: UACC-257 melanoma
UACC-62 melanoma = test system: UACC-62 melanoma

Which GI50 (786-0 renal) does the source give for `CC[C@]12C=CCN3CC[C@@]4(c5ccc(OC)cc5N(C)[C@H]4[C@@](O)(C(=O)OC)[C@@H]1OC(=O)CCCC[P+](c1ccc(F)cc1)(c1ccc(F)cc1)c1ccc(F)cc1)[C@@H]32` here?
Its GI50 is 34.1 µM.

And the TGI (786-0 renal)?
The TGI was > 100 µM.

What about the GI50 (A498 renal) of the same compound?
Its GI50 is > 100 µM.

What about the TGI (A498 renal) of the same compound?
Its TGI is > 100 µM.

And the GI50 (A549 NSCLC)?
The GI50 was 33.8 µM.

What about the TGI (A549 NSCLC) of the same compound?
The TGI was > 100 µM.

What about the GI50 (ACHN renal) of the same compound?
The GI50 was > 100 µM.

And the TGI (ACHN renal)?
Its TGI is > 100 µM.

And the GI50 (BT-549 breast)?
Its GI50 is 12.9 µM.

What about the TGI (BT-549 breast) of the same compound?
Its TGI is 27.1 µM.

What about the GI50 (CAKI-1 renal) of the same compound?
Its GI50 is > 100 µM.

What about the TGI (CAKI-1 renal) of the same compound?
Its TGI is > 100 µM.

And the GI50 (CCRF-CEM leukemia)?
The GI50 was 13.6 µM.

And the TGI (CCRF-CEM leukemia)?
The TGI was 30.3 µM.

And the GI50 (COLO 205 colon)?
The GI50 was 4.63 µM.

And the TGI (COLO 205 colon)?
The TGI was 16.4 µM.

And the GI50 (DU-145 prostate)?
The GI50 was 35.4 µM.

And the TGI (DU-145 prostate)?
The TGI was > 100 µM.

And the GI50 (EKVX NSCLC)?
The GI50 was 21 µM.

And the TGI (EKVX NSCLC)?
The TGI was > 100 µM.

What about the GI50 (HCC-2998 colon) of the same compound?
Its GI50 is 12.5 µM.

What about the TGI (HCC-2998 colon) of the same compound?
The TGI was 25.5 µM.

What about the GI50 (HCT-116 colon) of the same compound?
The GI50 was 25.9 µM.

And the TGI (HCT-116 colon)?
Its TGI is > 100 µM.

What about the GI50 (HCT-15 colon) of the same compound?
Its GI50 is > 100 µM.

What about the TGI (HCT-15 colon) of the same compound?
The TGI was > 100 µM.

What about the GI50 (HL-60(TB) leukemia) of the same compound?
The GI50 was 2.11 µM.

And the TGI (HL-60(TB) leukemia)?
The TGI was 13.2 µM.

What about the GI50 (HOP-62 NSCLC) of the same compound?
Its GI50 is 25.5 µM.

What about the TGI (HOP-62 NSCLC) of the same compound?
Its TGI is 73.4 µM.

What about the GI50 (HOP-92 NSCLC) of the same compound?
The GI50 was 6.32 µM.

What about the TGI (HOP-92 NSCLC) of the same compound?
Its TGI is 23.5 µM.

What about the GI50 (HS 578T breast) of the same compound?
The GI50 was 16.9 µM.

What about the TGI (HS 578T breast) of the same compound?
The TGI was 37.5 µM.

What about the GI50 (HT29 colon) of the same compound?
The GI50 was 15.4 µM.

What about the TGI (HT29 colon) of the same compound?
The TGI was 38.8 µM.

What about the GI50 (IGROV1 ovarian) of the same compound?
The GI50 was 10.8 µM.

And the TGI (IGROV1 ovarian)?
The TGI was 24.3 µM.

And the GI50 (K-562 leukemia)?
The GI50 was 11.3 µM.

And the TGI (K-562 leukemia)?
The TGI was 38.7 µM.

And the GI50 (KM12 colon)?
The GI50 was 13.4 µM.

And the TGI (KM12 colon)?
The TGI was 27.7 µM.

What about the GI50 (LOX IMVI melanoma) of the same compound?
Its GI50 is 16.8 µM.

What about the TGI (LOX IMVI melanoma) of the same compound?
Its TGI is 30.8 µM.

What about the GI50 (M14 melanoma) of the same compound?
Its GI50 is 14.7 µM.

And the TGI (M14 melanoma)?
Its TGI is 30 µM.

And the GI50 (MALME-3M melanoma)?
Its GI50 is 13.5 µM.

And the TGI (MALME-3M melanoma)?
Its TGI is 27.3 µM.

What about the GI50 (MCF7 breast) of the same compound?
The GI50 was 11.5 µM.

What about the TGI (MCF7 breast) of the same compound?
Its TGI is 24.5 µM.

What about the GI50 (MDA-MB-435) of the same compound?
Its GI50 is 12.9 µM.

And the TGI (MDA-MB-435)?
Its TGI is 28.4 µM.

What about the GI50 (MDA-MB-468 breast) of the same compound?
Its GI50 is 2.61 µM.

What about the TGI (MDA-MB-468 breast) of the same compound?
The TGI was 11.1 µM.

What about the GI50 (MOLT-4 leukemia) of the same compound?
The GI50 was 14.7 µM.

What about the TGI (MOLT-4 leukemia) of the same compound?
The TGI was 32.6 µM.

And the GI50 (NCI-H226 lung)?
Its GI50 is 27.3 µM.

What about the TGI (NCI-H226 lung) of the same compound?
The TGI was > 100 µM.

What about the GI50 (NCI-H23 lung) of the same compound?
Its GI50 is 20.1 µM.

And the TGI (NCI-H23 lung)?
The TGI was 53.5 µM.

What about the GI50 (NCI-H460 lung) of the same compound?
The GI50 was 29.4 µM.

And the TGI (NCI-H460 lung)?
The TGI was > 100 µM.

And the GI50 (NCI-H522 lung)?
Its GI50 is 5.44 µM.

What about the TGI (NCI-H522 lung) of the same compound?
The TGI was 20.2 µM.

And the GI50 (NCI/ADR-RES ovarian)?
Its GI50 is > 100 µM.

And the TGI (NCI/ADR-RES ovarian)?
The TGI was > 100 µM.

And the GI50 (OVCAR-3 ovarian)?
Its GI50 is 9.3 µM.

What about the TGI (OVCAR-3 ovarian) of the same compound?
The TGI was 23.3 µM.

What about the GI50 (OVCAR-4 ovarian) of the same compound?
The GI50 was 25.1 µM.

And the TGI (OVCAR-4 ovarian)?
The TGI was > 100 µM.

What about the GI50 (OVCAR-5 ovarian) of the same compound?
Its GI50 is 29.1 µM.

What about the TGI (OVCAR-5 ovarian) of the same compound?
Its TGI is > 100 µM.

And the GI50 (OVCAR-8 ovarian)?
The GI50 was 29.4 µM.

And the TGI (OVCAR-8 ovarian)?
Its TGI is > 100 µM.

What about the GI50 (PC-3 prostate) of the same compound?
Its GI50 is 16.4 µM.

What about the TGI (PC-3 prostate) of the same compound?
Its TGI is 56.7 µM.

What about the GI50 (RPMI-8226 leukemia) of the same compound?
Its GI50 is 2.97 µM.

And the TGI (RPMI-8226 leukemia)?
The TGI was 14.9 µM.

And the GI50 (RXF 393 renal)?
Its GI50 is 13.3 µM.

And the TGI (RXF 393 renal)?
Its TGI is 31.6 µM.

What about the GI50 (SF-268 CNS) of the same compound?
Its GI50 is 17.6 µM.

And the TGI (SF-268 CNS)?
Its TGI is 38.3 µM.

What about the GI50 (SF-295 CNS) of the same compound?
The GI50 was 30.6 µM.

And the TGI (SF-295 CNS)?
The TGI was > 100 µM.

And the GI50 (SF-539 CNS)?
The GI50 was 21.9 µM.

What about the TGI (SF-539 CNS) of the same compound?
Its TGI is 62.4 µM.

And the GI50 (SK-MEL-28 melanoma)?
The GI50 was 8.28 µM.

What about the TGI (SK-MEL-28 melanoma) of the same compound?
Its TGI is 20.7 µM.

What about the GI50 (SK-MEL-5 melanoma) of the same compound?
The GI50 was 17.1 µM.

And the TGI (SK-MEL-5 melanoma)?
The TGI was 30.8 µM.

And the GI50 (SK-OV-3 ovarian)?
Its GI50 is 23.5 µM.

And the TGI (SK-OV-3 ovarian)?
Its TGI is 66.5 µM.

And the GI50 (SN12C renal)?
The GI50 was 28.6 µM.

And the TGI (SN12C renal)?
The TGI was > 100 µM.

What about the GI50 (SNB-19 CNS) of the same compound?
Its GI50 is 13 µM.

And the TGI (SNB-19 CNS)?
The TGI was 26.7 µM.

And the GI50 (SR leukemia)?
The GI50 was 14.5 µM.

And the TGI (SR leukemia)?
Its TGI is 31.9 µM.

What about the GI50 (SW-620 colon) of the same compound?
The GI50 was 16.5 µM.

What about the TGI (SW-620 colon) of the same compound?
Its TGI is 37.8 µM.

And the GI50 (T-47D breast)?
Its GI50 is 11.5 µM.

What about the TGI (T-47D breast) of the same compound?
The TGI was 43.2 µM.

What about the GI50 (TK-10 renal) of the same compound?
The GI50 was 21.2 µM.

What about the TGI (TK-10 renal) of the same compound?
Its TGI is 52.6 µM.

What about the GI50 (U251 CNS) of the same compound?
The GI50 was 10.7 µM.

What about the TGI (U251 CNS) of the same compound?
The TGI was 23.3 µM.

What about the GI50 (UACC-257 melanoma) of the same compound?
Its GI50 is 5.58 µM.

And the TGI (UACC-257 melanoma)?
Its TGI is 19.2 µM.

What about the GI50 (UACC-62 melanoma) of the same compound?
Its GI50 is 11.3 µM.

And the TGI (UACC-62 melanoma)?
Its TGI is 23.5 µM.
